The values that follow come from ChEMBL document CHEMBL3397021, “Synthesis and biological evaluation of 3-([1,2,4]triazolo[4,3-a]pyridin-3-yl)-4-(indol-3-yl)-maleimides as potent, selective GSK-3β inhibitors and neuroprotective agents” (Bioorg Med Chem, 2015).

Experiment [1] deals with Glycogen synthase kinase-3 beta (Homo sapiens, UniProt P49841).
Description: Inhibition of recombinant GST-tagged GSK-3beta (unknown origin) expressed in Escherichia coli strain BL21-Codon Plus (DE3) using Ser/Thr 9 peptide substrate by Z'-LYTE kinase assay
Experiment [2] in a line: Neuroprotective activity against glutamate-induced neurotoxicity in Sprague-Dawley rat primary cerebellar granule neurons assessed as cell viability at 10 uM pre-incubated for 24 hrs before glutamate stimulation for 24 hrs by MTT assay. Type of experiment: functional. The following applies: Neuron, read-out: Activity.

Glycogen synthase kinase-3 beta, sequence (P49841 whole entry): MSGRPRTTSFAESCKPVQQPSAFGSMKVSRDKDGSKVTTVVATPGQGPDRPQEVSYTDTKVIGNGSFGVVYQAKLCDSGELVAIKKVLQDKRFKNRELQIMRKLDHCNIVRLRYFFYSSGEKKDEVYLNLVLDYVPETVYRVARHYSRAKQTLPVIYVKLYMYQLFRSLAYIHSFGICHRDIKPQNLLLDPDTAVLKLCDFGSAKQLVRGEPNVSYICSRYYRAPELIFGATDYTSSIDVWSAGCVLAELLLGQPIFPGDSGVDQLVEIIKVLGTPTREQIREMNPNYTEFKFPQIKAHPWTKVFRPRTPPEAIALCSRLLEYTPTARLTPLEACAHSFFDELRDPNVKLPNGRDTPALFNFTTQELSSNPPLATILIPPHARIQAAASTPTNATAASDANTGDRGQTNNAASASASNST

Turning to `Cn1cc(C2=C(c3nnc4ccccn34)C(=O)NC2=O)c2cc(Cl)ccc21`, in experiment [1], half-maximal inhibition (IC50) required 74.1 nM. The viability at 10 µM in experiment [2] came out at 95.1%.

In the case of `COc1ccc2c(c1)c(C1=C(c3nnc4ccccn34)C(=O)NC1=O)cn2C`, half-maximal inhibition in experiment [1] (IC50) required 942 nM. Consider `Cn1cc(C2=C(c3nnc4ccccn34)C(=O)NC2=O)c2ccc(Cl)cc21`, for which the IC50 in experiment [1] is 159 nM. Further, the viability at 10 µM in experiment [2] was 55.7%. For `Cn1cc(C2=C(c3nnc4ccccn34)C(=O)NC2=O)c2ccccc21` the same measures were 154 nM and 83.6%. Regarding `Cn1cc(C2=C(c3nnc4ccccn34)C(=O)NC2=O)c2ccc(Br)cc21`, the IC50 in experiment [1] came out at 327 nM.

Consider `O=C1NC(=O)C(c2nnc3ccccn23)=C1c1cn(CCCn2ccnc2)c2ccccc12`, for which, in experiment [1], the IC50 turned out to be 36 nM. Also, the viability at 10 µM in experiment [2] is 60.6%.

Consider `O=C1NC(=O)C(c2nnc3ccccn23)=C1c1c[nH]c2ccccc12`, for which the IC50 in experiment [1] came to 477 nM. For `Cn1cc(C2=C(c3nnc4ccccn34)C(=O)NC2=O)c2cc(Br)ccc21`, half-maximal inhibition in experiment [1] (IC50) required 63.5 nM. Moreover, the viability at 10 µM in experiment [2] worked out at 93.5%. `Cn1cc(C2=C(c3nnc4ccccn34)C(=O)NC2=O)c2ccc(F)cc21`: the IC50 in experiment [1] amounted to 204 nM. In experiment [2], the viability at 10 µM is 59.7%. Consider `Cc1cccc2c(C3=C(c4nnc5ccccn45)C(=O)NC3=O)cn(C)c12`, for which, in experiment [1], inhibition was half-maximal at 105 nM (IC50). Besides, the viability at 10 µM in experiment [2] came out at 94.3%.

In experiment [1], `Cn1cc(C2=C(c3nnc4ccccn34)C(=O)NC2=O)c2cc(F)ccc21` yielded a half-maximal inhibitory concentration (IC50) of 188 nM. In experiment [2], the viability at 10 µM was 71.6%. In experiment [1], `CC(C)n1cc(C2=C(c3nnc4ccccn34)C(=O)NC2=O)c2ccccc21` gave an IC50 of 13 nM. Besides, the viability at 10 µM in experiment [2] amounted to 94.4%. For the molecule `O=C1NC(=O)C(c2nnc3ccccn23)=C1c1cn(CCCN2CCOCC2)c2ccccc12`, the IC50 in experiment [1] was 200 nM. Same read-out and setting: under `C=CCn1cc(C2=C(c3nnc4ccccn34)C(=O)NC2=O)c2ccccc21` stands 73.6 nM. Turning to `CCCCn1cc(C2=C(c3nnc4ccccn34)C(=O)NC2=O)c2ccccc21`, the half-inhibitory concentration (IC50) in experiment [1] came out at 69.7 nM. Besides, the viability at 10 µM in experiment [2] was 93.2%.

In the case of `O=C1NC(=O)C(c2nnc3ccccn23)=C1c1cn(CCCO)c2ccccc12`, in experiment [1], the midpoint of inhibition, the IC50, lay at 121 nM.
